Test results: patent US11466273B2, “Monocarboxylate transporter 4 (MCT4) antisense oligonucleotide (ASO) inhibitors for use as therapeutics in the treatment of cancer” (THE UNIVERSITY OF BRITISH COLUMBIA, priority 2015, dated 2022)
pIC50: −log10 of the molar value.

Key:
[1] = system: PC3 cells; test: Combination screening, total live PC3 cell numbers; type: cell-based, human; conditions: approximate IC50 used for combination screening, 48 hours; read-out: IC50 Concentration
Excerpt: Human PC-3 and DU145 CRPC cells, human LNCaP prostate cancer cells, and mouse TRAMPC2 prostate cancer cells were purchased from the American Type Culture Collection (ATCC); C4-2 CRPC cells were from the Vancouver Prostate Centre, Vancouver, BC, Canada. Human monolayer cultures were maintained in RPMI-1640 (GE Healthcare Hyclone™, Logan, Utah) supplemented with 10% fetal bovine serum (FBS) (GE Healthcare Hyclone™, Logan, Utah) while TRAMPC2 cells were maintained in DMEM (GE Healthcare Hyclone™, Logan, Utah) supplemented with 5% FBS. For cell counting, cells were trypsinized to form a single cell suspension and counted using a TC20 Automated Cell Counter (Bio-Rad, Hercules, Calif.). Cell viability was assessed by trypan blue exclusion.
Various combination strategies were screened at the approximate IC50 concentrations to determine whether synergistic effects may be found by combining current cancer therapeutics (see TABLE D) with MCT4 ASO SEQ ID NO:5. In FIGS. 10 A-C, the total live PC3 cell numbers were assessed 48 hours after treatment with Metformin, Doxycycline and docetaxel both alone and in combination with MCT4 ASO SEQ ID NO:5.

[2] = system: mouse MCT4; test: Mouse MCT4 expression in TRAMPC2 cells after ASO transfection; type: cell-based; conditions: up to 200 nM
Protocol: (§1) Cells were transfected in 6-well plates with ASOs at 100 nM for 48 hours (unless otherwise indicated) using Oligofectamine™ (Invitrogen™, Carlsbad, Calif.) or with MCT4-targeting siRNAs and controls (Dharmacon™, Chicago, Ill.) at 50 nM for 48 hours using Lipofectamine™ 2000 (Invitrogen™), following the manufacturer's instructions.
(§2) Total RNA was isolated using the RNeasy Mini Kit™ (Qiagen Inc.™, Hilden, Germany) and cDNA synthesized using the QuantiTect Reverse Transcription Kit™ (Qiagen™). Primers were designed using Primer-BLAST™. qRT-PCR reactions using KAPA SYBR Fast Universal™ (Kapa Biosystems™, Woburn, Mass.) were performed in triplicate in a ViiA 7 Real-Time PCR™ system (Applied Biosystems™, Foster City, Calif.). […]
(§3) Cells were harvested and lysed in RIPA buffer (50 mM Tris-Cl pH 7.4, 150 mM NaCl, 1% Igepal, 0.5% Na-deoxycholate, 0.1% SDS) supplemented with a complete protease inhibitor cocktail (Roche, Nutley, N.J.). The protein concentration of the lysate was determined by Pierce BCA Protein Assay™ (Thermo Scientific™, Waltham, Mass.). […] Following overnight incubation at 4° C., the primary antibody was probed with the corresponding secondary antibody and detected using the Odyssey Infrared Imaging System™ (Li-cor Biosciences™) and Image Studio Version 3.1™ (Li-cor Biosciences™). […]

[3] = system: MCT4; test: MCT4 expression in DU145 cells after ASO transfection; type: cell-based, human; conditions: compared with PC-3 and C4-2
Protocol: as §1, §2, §3

[4] = system: PC-3 cells; test: qPCR of glycolysis and lactic acid conversion genes in PC-3 cells; type: cell-based, human
Protocol: (§4) Total RNA was isolated using the RNeasy Mini Kit™ (Qiagen Inc.™, Hilden, Germany) and cDNA synthesized using the QuantiTect Reverse Transcription Kit™ (Qiagen™). Primers were designed using Primer-BLAST™. qRT-PCR reactions using KAPA SYBR Fast Universal™ (Kapa Biosystems™, Woburn, Mass.) were performed in triplicate in a ViiA 7 Real-Time PCR™ system (Applied Biosystems™, Foster City, Calif.). Target genes were normalized to a geometric average of 3 internal reference genes (Vandesompele et al., 2002).

[5] = system: MCT4; test: MCT4 expression in C4-2 cells after ASO transfection; type: cell-based, human; conditions: read-out: IC50 reduction of MCT4 expression
Protocol: as §1, §2, §3

[6] = system: C4-2 CRPC cells; test: C4-2 CRPC cell proliferation after ASO transfection; type: cell-based, human; conditions: read-out: IC50 inhibition of C4-2 cell proliferation
Protocol: (§5) Cell viability was assessed by trypan blue exclusion.
as §1

[7] = system: DU145 prostate cancer cells; test: DU145 cell proliferation after ASO transfection; type: cell-based, human; conditions: compared with PC-3 and C4-2
Protocol: as §5, §1

[8] = system: PC-3 cells; test: PC-3 cell proliferation after ASO/siRNA transfection; type: cell-based, human; conditions: for inhibition of PC-3 cell proliferation, screening of ten MCT4 ASOs: 100 nM, 48 hours; for inhibition of cell proliferation, time course: 96 hours post-transfection; for pIC50: transfection of 5 nM to 200 nM, read-out: IC50 inhibition of PC-3 cell proliferation
Protocol: as §5, §1

[9] = system: MCT4 mRNA; test: MCT4 expression (mRNA, protein) in PC-3 cells after ASO transfection; type: cell-based, human; conditions: for MCT4 protein levels, time course: 96 hours; for inhibition of MCT4 expression, screening of ten MCT4 ASOs: qPCR and Western blot, 48 hours; for pIC50: transfection of 5 nM to 200 nM, read-out: IC50 reduction of MCT4 mRNA levels
Protocol: as §1, §4
Cells were harvested and lysed in RIPA buffer (50 mM Tris-Cl pH 7.4, 150 mM NaCl, 1% Igepal, 0.5% Na-deoxycholate, 0.1% SDS) supplemented with a complete protease inhibitor cocktail (Roche, Nutley, N.J.). The protein concentration of the lysate was determined by Pierce BCA Protein Assay™ (Thermo Scientific™, Waltham, Mass.). The lysate was run on 8% SDS polyacrylamide gel (20 ug of protein per lane) and proteins were transferred onto PVDF membrane (Millipore™, Billerica, Mass.). The blot was blocked with the Odyssey™ blocking buffer (Li-cor Biosciences™) and probed with anti-MCT4 antibody. Vinculin was used as a loading control. Following overnight incubation at 4° C., the primary antibody was probed with the corresponding secondary antibody and detected using the Odyssey Infrared Imaging System™ (Li-cor Biosciences™) and Image Studio Version 3.1™ (Li-cor Biosciences™). Densitometry analysis was done using ImageJ (U.S. National Institutes of Health, Bethesda, Md.).

[10] = system: subcutaneous PC-3 tumours; test: Treatment of PC-3 tumour-bearing nude mice with MCT4 ASO; type: in vivo; conditions: for host toxicity (animal weights and behaviour) / growth of PC-3 tumours: 10 mg/kg intraperitoneal; for host toxicity (animal weights and behaviour): 15 days; for growth of PC-3 tumours: daily for 5 days, 2 days off, total 15 days; for MCT4 protein expression in tumour / cell apoptosis, cleaved-caspase 3 staining / cell proliferation, Ki-67 staining: tumour tissue IHC
Protocol: PC-3 cells ([…] cells in 1:1 HBSS:Matrigel) were injected subcutaneously into both flanks of 24 male athymic nude mice (Simonsen Laboratories™, Gilroy, Calif.). Once the mean tumour volume had reached approximately 100 mm3, mice were randomized into four groups and treated with intraperitoneal injections of MCT4 ASO #1 (SEQ ID NO: 1), #14 (SEQ ID NO: 5), control ASO, or vehicle (PBS) at 10 mg/kg daily for 5 days followed by 2 days off treatment for a total of 15 days. The health of the mice was monitored throughout the study by measuring body weights and checking for abnormal behaviour such as lethargy, lack of hydration, and additional signs of weakness. Tumour size was measured twice weekly and tumour volume calculated using the formula: Volume=Length×width×depth×0.5236 (mm3). Mice were sacrificed 1 hour after the final dose for tissue harvesting.
Tumour tissue was formalin-fixed and paraffin-embedded for immunohistochemical analysis. Tissues were sectioned, probed, and stained with DAB (Sigma™) as previously described (Wang et al., 2005). […] For MCT4, images of five random fields at 200× magnification were taken per tumour and staining intensity was assessed by percentage scoring, using the formula: Intensity=(% area score 3)×3+(% area score 2)×2+(% area score 1)×1. The extent of immune cell aggregation was quantified following CD31 staining by imaging the five most prominent regions of aggregates per tumour at 200× magnification and determining the percent area of the field they occupied. The proportions of immune cells were evaluated as the area of positive staining normalized to the area occupied by immune cell aggregates in the same five prominent regions.

[11] = system: TRAMPC2 prostate cancer cells; test: TRAMPC2 cell proliferation after ASO transfection; type: cell-based, mouse; conditions: up to highest tested concentration of 200 nM
Protocol: as §5, §1

[12] = system: PC-3 cells; test: Lactate and glucose determination in PC-3 cells; type: cell-based, human; conditions: after 48 hours of transfection
Protocol: PC-3 cells transfected with ASOs for 48 hours were assessed for lactate and glucose levels. Cells were incubated with fresh media for 4 hours. A sample of the media was then taken and deproteinated with 10K Spin Columns™ (BioVision™, Milpitas, Calif.) prior to determination of lactate concentration using Lactate Assay Kit (BioVision) and glucose concentration using Glucose Assay Kit™ (BioVision™). Intracellular lactate levels were determined by lysing ASO-transfected cells in MQH2O. Final concentrations were determined by normalizing to the total number of live cells.

## AGATGCAGAAGACCACGAGG (chemistry not given here; listed as Homo sapiens) [SEQ ID No. 5]
[1]
  pIC50: 7.30
[2]
  reduction in mouse MCT4 expression: did not lead to a significant reduction
[3]
  inhibitory effect on MCT4 expression in DU145 cells: almost identical IC50 values
[4]
  expression of glycolysis genes GAPDH, PGK1, PGAM1 and ENO1: down regulation
  expression of lactate dehydrogenase A (LDHA): depressed
  expression of pyruvate dehydrogenase kinase-1 (PDK1): decreased expression
[5]
  pIC50: 7.59
[6]
  pIC50: 7.57
[7]
  inhibitory effect on DU145 cell proliferation: almost identical IC50 values
[8]
  inhibition of PC-3 cell proliferation, screening of ten MCT4 ASOs: greatest potency
  inhibition of cell proliferation, time course: maintained the inhibition of cell proliferation
  pIC50: 7.59
[9]
  MCT4 protein levels, time course: remained low
  inhibition of MCT4 expression, screening of ten MCT4 ASOs: greatest potency
  pIC50: 7.49
[10]
  host toxicity (animal weights and behaviour): without inducing major host toxicity
  growth of PC-3 tumours: markedly inhibited
  MCT4 protein expression in tumour: decrease in MCT4 protein expression
  cell apoptosis, cleaved-caspase 3 staining: increase in cell apoptosis
  cell proliferation, Ki-67 staining: decrease in cell proliferation
[11]
  reduction in TRAMPC2 cell proliferation: did not lead to a significant reduction
[12]
  glucose consumption: extensive decrease
  intracellular lactate: accumulation
  lactic acid secretion: marked inhibition

## TCCCATGGCCAGGAGGGTTG (chemistry not given here; listed as Homo sapiens) [SEQ ID No. 1]
[2]
  reduction in mouse MCT4 expression: did not lead to a significant reduction
[3]
  inhibitory effect on MCT4 expression in DU145 cells: almost identical IC50 values
[4]
  expression of glycolysis genes GAPDH, PGK1, PGAM1 and ENO1: down regulation
  expression of lactate dehydrogenase A (LDHA): depressed
  expression of pyruvate dehydrogenase kinase-1 (PDK1): decreased expression
[5]
  pIC50: 7.30
[6]
  pIC50: 7.40
[7]
  inhibitory effect on DU145 cell proliferation: almost identical IC50 values
[8]
  inhibition of PC-3 cell proliferation, screening of ten MCT4 ASOs: greatest potency
  inhibition of cell proliferation, time course: maintained the inhibition of cell proliferation
  pIC50: 7.30
[9]
  MCT4 protein levels, time course: remained low
  inhibition of MCT4 expression, screening of ten MCT4 ASOs: greatest potency
  pIC50: 7.30
[10]
  host toxicity (animal weights and behaviour): without inducing major host toxicity
  growth of PC-3 tumours: markedly inhibited
  MCT4 protein expression in tumour: decrease in MCT4 protein expression
  cell apoptosis, cleaved-caspase 3 staining: increase in cell apoptosis
  cell proliferation, Ki-67 staining: decrease in cell proliferation
[11]
  reduction in TRAMPC2 cell proliferation: did not lead to a significant reduction
[12]
  glucose consumption: extensive decrease
  intracellular lactate: accumulation
  lactic acid secretion: marked inhibition
